Measurements: ChEMBL document CHEMBL3352741, “Discovery of VU0431316: a negative allosteric modulator of mGlu5 with activity in a mouse model of anxiety” (Bioorg Med Chem Lett, 2014)
Each block holds one molecule with its values, some of them ahead of it. Calls of active or inactive are those of the source. No cut-off for these calls is given here.

Experiments:
[1] = molecular target: T1, Metabotropic glutamate receptor 5 (Rattus norvegicus, UniProt P31424); assay: Negative allosteric modulator activity at rat mGlu5 expressed in HEK293A cells assessed as reduction in glutamate-induced calcium mobilization; format: functional, cell-based, HEK293-A
T1 sequence (P31424 whole entry): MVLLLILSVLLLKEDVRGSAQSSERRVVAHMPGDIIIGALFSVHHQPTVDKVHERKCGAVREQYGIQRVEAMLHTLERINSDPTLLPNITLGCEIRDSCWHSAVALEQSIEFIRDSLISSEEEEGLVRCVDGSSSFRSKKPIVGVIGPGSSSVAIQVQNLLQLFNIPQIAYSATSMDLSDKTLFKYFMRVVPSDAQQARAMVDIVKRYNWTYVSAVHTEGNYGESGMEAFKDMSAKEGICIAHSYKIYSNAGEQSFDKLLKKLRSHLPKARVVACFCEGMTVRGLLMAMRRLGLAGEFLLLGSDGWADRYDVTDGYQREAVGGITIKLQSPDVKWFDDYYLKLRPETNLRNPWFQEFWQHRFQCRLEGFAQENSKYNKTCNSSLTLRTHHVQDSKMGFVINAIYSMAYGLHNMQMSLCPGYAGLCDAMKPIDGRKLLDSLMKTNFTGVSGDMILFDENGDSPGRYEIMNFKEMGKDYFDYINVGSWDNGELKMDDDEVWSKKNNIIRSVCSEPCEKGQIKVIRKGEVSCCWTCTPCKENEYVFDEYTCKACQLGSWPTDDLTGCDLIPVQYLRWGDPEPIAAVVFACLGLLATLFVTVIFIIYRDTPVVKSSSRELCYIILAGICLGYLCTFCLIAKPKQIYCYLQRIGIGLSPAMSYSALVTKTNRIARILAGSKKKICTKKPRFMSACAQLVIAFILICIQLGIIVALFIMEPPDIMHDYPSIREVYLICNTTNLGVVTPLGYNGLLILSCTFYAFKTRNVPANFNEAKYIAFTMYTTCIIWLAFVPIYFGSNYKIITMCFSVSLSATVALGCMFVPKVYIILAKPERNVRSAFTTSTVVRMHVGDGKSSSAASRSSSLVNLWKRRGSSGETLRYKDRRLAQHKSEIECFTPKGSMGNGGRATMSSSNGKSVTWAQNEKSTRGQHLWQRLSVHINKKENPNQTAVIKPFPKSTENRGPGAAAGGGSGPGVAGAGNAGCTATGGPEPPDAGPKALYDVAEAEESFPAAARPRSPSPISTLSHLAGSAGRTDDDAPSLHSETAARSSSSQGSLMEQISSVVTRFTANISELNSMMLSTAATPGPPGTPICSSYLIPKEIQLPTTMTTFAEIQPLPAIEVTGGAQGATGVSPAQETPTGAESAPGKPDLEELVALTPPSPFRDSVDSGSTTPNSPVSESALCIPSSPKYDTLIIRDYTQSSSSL

[2] = molecular target: Metabotropic glutamate receptor 5 (Rattus norvegicus) (UniProt P31424); assay: Negative allosteric modulator activity at rat mGlu5 expressed in HEK293A cells assessed as reduction in 100 uM glutamate-induced calcium mobilization at 30 uM; format: functional, cell-based; conditions: HEK293-A
Sequence of Metabotropic glutamate receptor 5 (Rattus norvegicus) (P31424 21-1203 limits assumed): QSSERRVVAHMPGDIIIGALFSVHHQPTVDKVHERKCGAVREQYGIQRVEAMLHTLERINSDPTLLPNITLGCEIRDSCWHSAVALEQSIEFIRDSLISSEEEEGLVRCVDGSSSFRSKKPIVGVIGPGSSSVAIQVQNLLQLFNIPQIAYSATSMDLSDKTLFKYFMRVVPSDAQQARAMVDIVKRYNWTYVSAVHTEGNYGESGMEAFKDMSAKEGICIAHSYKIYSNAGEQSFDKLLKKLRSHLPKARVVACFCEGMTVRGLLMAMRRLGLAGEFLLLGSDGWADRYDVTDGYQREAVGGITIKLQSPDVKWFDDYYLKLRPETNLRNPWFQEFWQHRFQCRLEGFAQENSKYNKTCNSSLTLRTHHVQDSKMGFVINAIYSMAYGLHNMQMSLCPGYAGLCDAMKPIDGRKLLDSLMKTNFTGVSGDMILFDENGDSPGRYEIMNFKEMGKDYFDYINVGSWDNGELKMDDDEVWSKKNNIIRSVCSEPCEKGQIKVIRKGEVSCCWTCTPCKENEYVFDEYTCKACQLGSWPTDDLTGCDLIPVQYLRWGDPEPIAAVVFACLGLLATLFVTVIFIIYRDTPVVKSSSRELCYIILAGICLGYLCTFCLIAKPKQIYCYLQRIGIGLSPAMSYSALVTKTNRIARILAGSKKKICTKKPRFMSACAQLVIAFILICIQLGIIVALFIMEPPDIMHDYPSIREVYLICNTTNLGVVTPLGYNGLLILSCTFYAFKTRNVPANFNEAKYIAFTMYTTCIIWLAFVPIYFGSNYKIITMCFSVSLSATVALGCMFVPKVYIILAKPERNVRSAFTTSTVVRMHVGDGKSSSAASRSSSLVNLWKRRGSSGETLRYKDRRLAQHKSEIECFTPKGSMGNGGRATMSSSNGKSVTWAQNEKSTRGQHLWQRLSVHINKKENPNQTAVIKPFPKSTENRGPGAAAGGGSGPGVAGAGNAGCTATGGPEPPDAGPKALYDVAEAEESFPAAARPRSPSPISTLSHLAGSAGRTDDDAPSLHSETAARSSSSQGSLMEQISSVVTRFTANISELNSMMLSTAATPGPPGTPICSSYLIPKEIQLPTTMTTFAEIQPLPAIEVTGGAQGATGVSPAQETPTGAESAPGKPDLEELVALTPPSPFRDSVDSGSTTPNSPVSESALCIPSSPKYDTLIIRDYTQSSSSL

[3] = Ratio of drug level in brain to plasma in Sprague-Dawley rat at 10 mg/kg, po administered as single dose after 60 mins by LC-MS/MS method; format: ADME, organism-based; set-up: dose 10 mg/kg, route oral; conditions: read-out: BPR
[4] = Drug level in Sprague-Dawley rat hepatic portal vein at 10 mg/kg, po administered as single dose after 60 mins by LC-MS/MS method; format: ADME, organism-based; set-up: dose 10 mg/kg, route oral; conditions: read-out: Drug uptake
Mus musculus = assay: In vivo mGlu5 negative allosteric modulator activity in Harlan CD1 mouse marble burying model of anxiety assessed as reduction in marble burying at => 10 mg/kg, ip dosed 15 mins before test; format: functional, organism-based; set-up: dose 10 mg/kg
[5] = Plasma concentration in Harlan CD1 mouse at 30 mg/kg, ip after 15 mins; format: ADME, organism-based; set-up: dose 30 mg/kg, route intraperitoneal
Plasma [6] = assay: Fraction unbound in cynomolgus monkey plasma by equilibrium dialysis method; format: ADME, cell-free, Macaca fascicularis
Cytochrome P450 2D6 = Cytochrome P450 2D6 (Homo sapiens, UniProt P10635); assay: Inhibition of CYP2D6 in pooled human liver microsomes in presence of NADPH; format: ADME
Plasma [7] = assay: Fraction unbound in rat plasma by equilibrium dialysis method; format: ADME, cell-free
[8] = Plasma concentration in Harlan CD1 mouse at 30 mg/kg, ip after 30 mins; format: ADME, organism-based; set-up: dose 30 mg/kg, route intraperitoneal
[9] = Apparent permeability from basolateral to apical side in human Caco2 cells; format: ADME, cell-based; conditions: caco-2
[10] = Half life in Sprague-Dawley rat at 1 mg/kg, iv after 2 to 1440 mins by LC-MS/MS method; format: ADME, organism-based; set-up: dose 1 mg/kg, route intravenous; conditions: in vivo
[11] = Oral bioavailability in Sprague-Dawley rat at 10 mg/kg administered as single dose after 15 to 1440 mins by LC-MS/MS method; format: ADME, organism-based; conditions: in vivo
Cytochrome P450 1A2 = molecular target: T2, Cytochrome P450 1A2 (Homo sapiens, UniProt P05177); assay: Inhibition of CYP1A2 in pooled human liver microsomes in presence of NADPH; format: ADME
T2 sequence (P05177 whole entry): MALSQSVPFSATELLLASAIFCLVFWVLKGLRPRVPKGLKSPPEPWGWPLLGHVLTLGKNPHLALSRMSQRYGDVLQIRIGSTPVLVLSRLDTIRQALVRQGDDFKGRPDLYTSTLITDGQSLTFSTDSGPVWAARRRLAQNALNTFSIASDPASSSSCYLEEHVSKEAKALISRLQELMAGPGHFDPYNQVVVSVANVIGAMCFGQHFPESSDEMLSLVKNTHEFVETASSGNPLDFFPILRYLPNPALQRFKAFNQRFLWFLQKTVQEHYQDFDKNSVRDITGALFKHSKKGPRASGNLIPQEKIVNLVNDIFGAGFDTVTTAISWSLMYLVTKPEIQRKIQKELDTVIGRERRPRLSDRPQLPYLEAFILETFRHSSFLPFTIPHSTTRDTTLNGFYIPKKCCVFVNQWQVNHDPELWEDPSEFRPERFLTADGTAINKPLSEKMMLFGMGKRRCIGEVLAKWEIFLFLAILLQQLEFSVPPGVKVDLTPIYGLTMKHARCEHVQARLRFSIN

[12] = molecular target: T1, Metabotropic glutamate receptor 5; assay: Displacement of [3H]methoxyPEPy from rat mGlu5 expressed in HEK293A cells after 1 hr by scintillation counting method; format: cell-based, HEK293-A
[13] = Drug level in Harlan CD1 mouse brain at 30 mg/kg, ip after 15 mins; format: ADME, organism-based; set-up: dose 30 mg/kg, route intraperitoneal; conditions: read-out: Drug uptake
[14] = molecular target: Metabotropic glutamate receptor 2 (Homo sapiens) (UniProt Q14416); assay: Activity at mGlu2 (unknown origin) expressed in HEK293-GIRK cells at 10 uM by thallium flux assay; format: cell-based
Cytochrome P450 2C9 = Cytochrome P450 2C9 (Homo sapiens, UniProt P11712); assay: Inhibition of CYP2C9 in pooled human liver microsomes in presence of NADPH; format: ADME
Sequence of Cytochrome P450 2C9 (P11712 whole entry): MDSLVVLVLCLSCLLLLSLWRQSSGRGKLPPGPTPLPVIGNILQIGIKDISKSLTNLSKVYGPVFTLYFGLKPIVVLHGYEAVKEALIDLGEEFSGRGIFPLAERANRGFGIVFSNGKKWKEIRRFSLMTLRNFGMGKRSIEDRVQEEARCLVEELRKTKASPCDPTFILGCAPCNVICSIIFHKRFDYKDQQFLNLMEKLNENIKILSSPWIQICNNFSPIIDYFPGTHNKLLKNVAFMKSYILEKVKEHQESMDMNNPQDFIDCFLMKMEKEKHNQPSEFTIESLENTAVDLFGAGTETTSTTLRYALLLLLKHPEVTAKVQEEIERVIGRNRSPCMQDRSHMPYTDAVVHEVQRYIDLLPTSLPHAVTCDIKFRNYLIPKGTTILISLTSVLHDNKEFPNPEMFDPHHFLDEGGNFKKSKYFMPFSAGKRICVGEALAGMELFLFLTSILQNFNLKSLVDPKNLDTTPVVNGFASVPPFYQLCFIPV

[15] = AUC in Sprague-Dawley rat at 10 mg/kg, po administered as single dose after 15 to 1440 mins by LC-MS/MS method; format: ADME, organism-based; set-up: dose 10 mg/kg, route oral; conditions: plasma
[16] = Drug level in Harlan CD1 mouse brain at 30 mg/kg, ip after 30 mins; format: ADME, organism-based; set-up: dose 30 mg/kg, route intraperitoneal; conditions: read-out: Drug uptake
Brain = assay: Fraction unbound in mouse brain homogenates by equilibrium dialysis method; format: ADME, tissue-based; conditions: brain homogenate
Plasma [17] = assay: Fraction unbound in human plasma by equilibrium dialysis method; format: ADME, cell-free
[18] = molecular target: Metabotropic glutamate receptor 6 (Homo sapiens) (UniProt O15303); assay: Activity at mGlu6 (unknown origin) expressed in HEK293-GIRK cells at 10 uM by thallium flux assay; format: cell-based
[19] = molecular target: Metabotropic glutamate receptor 1 (Rattus norvegicus) (UniProt P23385); assay: Activity at rat mGlu1 expressed in HEK293 cells at 10 uM by calcium flux assay; format: functional, cell-based
Cytochrome P450 3A4 = Cytochrome P450 3A4 (Homo sapiens, UniProt P08684); assay: Inhibition of CYP3A4 in pooled human liver microsomes in presence of NADPH; format: ADME
[20] = molecular target: Metabotropic glutamate receptor 7 (Homo sapiens) (UniProt Q14831); assay: Activity at mGlu7 (unknown origin) expressed in HEK293-GIRK cells at 10 uM by thallium flux assay; format: cell-based
[21] = Efflux ratio in human Caco2 cells; format: ADME, cell-based; conditions: caco-2
[22] = AUC in Sprague-Dawley rat at 1 mg/kg, iv after 2 to 1440 mins by LC-MS/MS method; format: ADME, organism-based; set-up: dose 1 mg/kg, route intravenous; conditions: plasma
[23] = Clearance in Sprague-Dawley rat at 1 mg/kg, iv after 2 to 1440 mins by LC-MS/MS method; format: ADME, organism-based; set-up: dose 1 mg/kg, route intravenous; conditions: in vivo
[24] = molecular target: Metabotropic glutamate receptor 8 (Homo sapiens) (UniProt O00222); assay: Activity at mGlu8 (unknown origin) expressed in HEK293-GIRK cells at 10 uM by thallium flux assay; format: cell-based
Sequence of Metabotropic glutamate receptor 8 (Homo sapiens) (O00222 whole entry): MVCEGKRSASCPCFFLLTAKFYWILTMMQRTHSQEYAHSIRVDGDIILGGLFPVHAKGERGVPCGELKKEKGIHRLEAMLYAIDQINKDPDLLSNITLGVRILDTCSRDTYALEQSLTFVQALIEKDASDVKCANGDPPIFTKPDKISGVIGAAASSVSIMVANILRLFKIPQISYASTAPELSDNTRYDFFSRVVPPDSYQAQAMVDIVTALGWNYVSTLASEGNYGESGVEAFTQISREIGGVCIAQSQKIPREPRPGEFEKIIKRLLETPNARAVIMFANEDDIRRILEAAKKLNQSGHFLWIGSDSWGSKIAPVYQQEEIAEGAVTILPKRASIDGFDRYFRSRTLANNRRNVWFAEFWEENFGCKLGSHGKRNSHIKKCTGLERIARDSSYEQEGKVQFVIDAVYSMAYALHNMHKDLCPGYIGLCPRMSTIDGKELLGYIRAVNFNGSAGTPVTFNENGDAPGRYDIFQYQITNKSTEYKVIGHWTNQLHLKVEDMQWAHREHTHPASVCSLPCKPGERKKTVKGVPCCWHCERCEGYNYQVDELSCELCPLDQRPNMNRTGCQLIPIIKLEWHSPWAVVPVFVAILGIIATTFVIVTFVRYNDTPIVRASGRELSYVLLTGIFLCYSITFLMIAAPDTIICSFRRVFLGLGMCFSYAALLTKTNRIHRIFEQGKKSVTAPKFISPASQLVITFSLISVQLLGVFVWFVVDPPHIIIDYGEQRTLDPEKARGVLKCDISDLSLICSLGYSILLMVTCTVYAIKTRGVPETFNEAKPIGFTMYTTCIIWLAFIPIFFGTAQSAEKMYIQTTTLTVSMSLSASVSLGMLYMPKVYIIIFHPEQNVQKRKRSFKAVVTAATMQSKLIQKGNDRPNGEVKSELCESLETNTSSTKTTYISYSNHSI

[25] = Cmax in Sprague-Dawley rat at 10 mg/kg, po administered as single dose after 15 to 1440 mins by LC-MS/MS method; format: ADME, organism-based; set-up: dose 10 mg/kg, route oral; conditions: in vivo
[26] = Volume of distribution at steady state in Sprague-Dawley rat at 1 mg/kg, iv after 2 to 1440 mins by LC-MS/MS method; format: ADME, organism-based; set-up: dose 1 mg/kg, route intravenous; conditions: in vivo, read-out: Vdss
MDCK [27] = assay: Efflux ratio in wild type MDCK cells; format: ADME, cell-based, Canis lupus familiaris; conditions: dog
MDCK [28] = assay: Apparent permeability from apical to basolateral side in wild type MDCK cells; format: ADME, cell-based, Canis lupus familiaris; conditions: dog
[29] = Drug level in Harlan CD1 mouse brain at 30 mg/kg, ip after 60 mins; format: ADME, organism-based; set-up: dose 30 mg/kg, route intraperitoneal; conditions: read-out: Drug uptake
[30] = Plasma concentration in Sprague-Dawley rat at 10 mg/kg, po administered as single dose after 60 mins by LC-MS/MS method; format: ADME, organism-based; set-up: dose 10 mg/kg, route oral
[31] = molecular target: Metabotropic glutamate receptor 4 (Homo sapiens) (UniProt Q14833); assay: Activity at mGlu4 (unknown origin) expressed in HEK293-GIRK cells at 10 uM by thallium flux assay; format: cell-based
Sequence of Metabotropic glutamate receptor 4 (Homo sapiens) (Q14833 whole entry): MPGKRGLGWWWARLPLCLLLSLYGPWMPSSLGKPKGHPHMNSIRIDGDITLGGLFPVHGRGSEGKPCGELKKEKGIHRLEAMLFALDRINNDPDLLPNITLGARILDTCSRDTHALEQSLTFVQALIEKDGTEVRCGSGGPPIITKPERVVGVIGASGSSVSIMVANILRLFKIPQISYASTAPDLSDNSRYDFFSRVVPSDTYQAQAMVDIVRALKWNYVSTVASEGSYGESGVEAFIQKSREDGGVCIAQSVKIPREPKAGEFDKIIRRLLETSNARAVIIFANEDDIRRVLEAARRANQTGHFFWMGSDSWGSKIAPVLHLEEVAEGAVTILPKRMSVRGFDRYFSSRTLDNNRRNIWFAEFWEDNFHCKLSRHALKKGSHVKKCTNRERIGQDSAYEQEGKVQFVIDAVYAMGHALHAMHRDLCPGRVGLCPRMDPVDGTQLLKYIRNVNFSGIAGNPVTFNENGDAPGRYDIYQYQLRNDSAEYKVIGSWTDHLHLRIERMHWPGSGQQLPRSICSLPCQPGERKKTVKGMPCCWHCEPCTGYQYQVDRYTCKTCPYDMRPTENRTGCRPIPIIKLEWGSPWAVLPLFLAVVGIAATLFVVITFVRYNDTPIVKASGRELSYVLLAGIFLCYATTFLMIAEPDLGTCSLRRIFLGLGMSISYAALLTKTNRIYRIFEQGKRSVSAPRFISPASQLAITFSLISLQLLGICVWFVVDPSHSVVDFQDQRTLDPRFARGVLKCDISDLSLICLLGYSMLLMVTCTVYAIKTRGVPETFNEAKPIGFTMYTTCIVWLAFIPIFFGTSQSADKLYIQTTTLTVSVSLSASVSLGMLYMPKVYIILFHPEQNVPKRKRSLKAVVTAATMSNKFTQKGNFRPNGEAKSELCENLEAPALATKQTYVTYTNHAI

[32] = Plasma concentration in Harlan CD1 mouse at 30 mg/kg, ip after 60 mins; format: ADME, organism-based; set-up: dose 30 mg/kg, route intraperitoneal
[33] = Drug level in Sprague-Dawley rat brain at 10 mg/kg, po administered as single dose after 60 mins by LC-MS/MS method; format: ADME, organism-based; set-up: dose 10 mg/kg, route oral; conditions: read-out: Drug uptake
MDCK [34] = assay: Apparent permeability from basolateral to apical side in wild type MDCK cells; format: ADME, cell-based, Canis lupus familiaris; conditions: dog
[35] = Tmax in Sprague-Dawley rat at 10 mg/kg, po administered as single dose after 15 to 1440 mins by LC-MS/MS method; format: ADME, organism-based; set-up: dose 10 mg/kg, route oral; conditions: in vivo
[36] = molecular target: Metabotropic glutamate receptor 3 (Homo sapiens) (UniProt Q14832); assay: Activity at mGlu3 (unknown origin) expressed in HEK293-GIRK cells at 10 uM by thallium flux assay; format: cell-based
[37] = Apparent permeability from apical to basolateral side in human Caco2 cells; format: ADME, cell-based; conditions: caco-2
[38] = molecular target: Metabotropic glutamate receptor 5 (Homo sapiens, UniProt P41594); assay: Negative allosteric modulator activity at human mGlu5 assessed as reduction in glutamate-induced calcium mobilization; format: functional

SMILES: O=C(Nc1cncc(Oc2cccnc2)n1)c1cccc(Cl)c1
IC50 [1]: 0.129 µM

%max [2]: 35% | IC50 [1]: > 10 µM
SMILES: O=C(Nc1cncc(Oc2cncnc2)n1)c1cscn1

%max [2]: 20% | IC50 [1]: > 10 µM
SMILES: Cc1csc(C(=O)Nc2cncc(Oc3cncc(F)c3)n2)n1

IC50 [1]: > 30 µM
SMILES: COc1cc(OC)cc(C(=O)Nc2cncc(Oc3cncc(F)c3)n2)c1

%max [2]: 1.5% | IC50 [1]: 5.14 µM
SMILES: O=C(Nc1cncc(Oc2cncnc2)n1)c1cccc(F)c1

%max [2]: 48% | IC50 [1]: > 10 µM
SMILES: O=C(Nc1cncc(Oc2cncc(F)c2)n1)c1cc(F)cc(Cl)c1

%max [2]: 52% | IC50 [1]: > 10 µM
SMILES: CN(C)c1cccc(C(=O)Nc2cncc(Oc3cncc(F)c3)n2)c1

%max [2]: 19%
SMILES: Cc1nc(C(=O)Nc2cncc(Oc3cncc(F)c3)n2)cs1

%max [2]: 1% | IC50 [1]: 0.894 µM
SMILES: O=C(Nc1cncc(Oc2cncc(F)c2)n1)c1cc(Cl)ccc1F

IC50 [1]: > 30 µM
SMILES: N#Cc1cc(F)cc(C(=O)Nc2cncc(Oc3cncc(F)c3)n2)c1

%max [2]: 6.6%
SMILES: Cc1cc(C)cc(C(=O)Nc2cncc(Oc3cncc(F)c3)n2)c1

IC50 [1]: > 30 µM
SMILES: O=C(Nc1cncc(Oc2cncc(F)c2)n1)c1cccc(Cl)c1F

%max [2]: 40% | IC50 [1]: > 10 µM
SMILES: O=C(Nc1cncc(Oc2cncc(F)c2)n1)c1ccccn1

SMILES: O=C(Nc1ccnc(Oc2cccnc2)c1)c1cccc(Cl)c1
IC50 [1]: 3.7 µM

Kp at 1 h [3]: 1.6 | concentration at 1 h [4]: 1310 nM | concentration at 0.25 h [5]: 3990 nM | Fu (Plasma [6]): 0.167 | %max [2]: 1.6% | IC50 (Cytochrome P450 2D6): > 30 µM | Fu (Plasma [7]): 0.179 | concentration at 0.5 h [8]: 3000 nM | Papp [9]: 71.4 ×10⁻⁶ cm/s | half-life [10]: 3.22 h | bioavailability [11]: 48% | IC50 (Cytochrome P450 1A2): 0.6 µM | Ki [12]: 0.037 µM | concentration at 0.25 h [13]: 6210 nM | Activity [14]: inactive | IC50 (Cytochrome P450 2C9): > 30 µM | AUC [15]: 8.37 µM·h | concentration at 0.5 h [16]: 3690 nM | Fu (Brain): 0.054 | Fu (Plasma [17]): 0.12 | Activity [18]: inactive | Activity [19]: inactive | IC50 [1]: 0.0624 µM | IC50 (Cytochrome P450 3A4): > 30 µM | Activity [20]: inactive | Ratio [21]: 1.07 | AUC [22]: 1.73 µM·h | clearance [23]: 30.2 mL/min/kg | Activity [24]: inactive | Cmax [25]: 1120 nM | Vd [26]: 2.7 L/kg | Ratio (MDCK [27]): 0.89 | Papp (MDCK [28]): 50.4 ×10⁻⁶ cm/s | concentration at 1 h [29]: 2800 nM | concentration at 1 h [30]: 920 nM | Activity [31]: inactive | concentration at 1 h [32]: 1690 nM | concentration at 1 h [33]: 1450 nM | Papp (MDCK [34]): 45 ×10⁻⁶ cm/s | Tmax [35]: 4 h | Activity [36]: inactive | Papp [37]: 66.8 ×10⁻⁶ cm/s | IC50 [38]: 0.085 µM
SMILES: O=C(Nc1cncc(Oc2cncnc2)n1)c1cc(Cl)ccn1
Activity (Mus musculus): Active

%max [2]: 1.2% | IC50 [1]: 0.662 µM
SMILES: N#Cc1cccc(C(=O)Nc2cncc(Oc3cncc(F)c3)n2)c1

%max [2]: 12% | IC50 [1]: > 10 µM
SMILES: O=C(Nc1cncc(Oc2cncnc2)n1)c1ccccc1

IC50 [1]: > 30 µM
SMILES: O=C(Nc1cncc(Oc2cncc(F)c2)n1)c1cncs1

IC50 [1]: > 30 µM
SMILES: Cc1cccc(C(=O)Nc2cncc(Oc3cncc(F)c3)n2)n1

IC50 [1]: > 30 µM
SMILES: O=C(Nc1cncc(Oc2cncc(F)c2)n1)c1cc(F)cc(F)c1

%max [2]: -4.3%
SMILES: COc1cccc(C(=O)Nc2cncc(Oc3cncnc3)n2)c1

%max [2]: 40% | IC50 [1]: > 10 µM
SMILES: O=C(Nc1cncc(Oc2cncc(F)c2)n1)c1nccs1
